Target: T1, Dioclea violacea lectin (DVL) (Macropsychanthus violaceus, UniProt I1SB09)
T1 sequence (I1SB09 1-237): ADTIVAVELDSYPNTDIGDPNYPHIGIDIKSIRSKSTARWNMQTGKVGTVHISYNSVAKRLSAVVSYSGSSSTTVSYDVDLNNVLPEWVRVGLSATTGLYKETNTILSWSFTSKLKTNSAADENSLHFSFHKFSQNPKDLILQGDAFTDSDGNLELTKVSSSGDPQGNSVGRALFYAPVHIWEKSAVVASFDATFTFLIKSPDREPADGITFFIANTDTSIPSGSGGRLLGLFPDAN
Experiment: fluorescence microscopy of FITC-lectin binding to fixed Lutzomyia migonei midgut, lectin blocked with sugar
Conditions: 0.1 M D-mannose, 37 °C, 30 min preincubation; carbohydrate recognition domain; FITC-labelled lectin 100 µg/mL

For `OC[C@H]1OC(O)[C@@H](O)[C@@H](O)[C@@H]1O` (stereo partly drawn) [D-mannose], the “fluorescence microscopy of FITC-lectin binding to fixed Lutzomyia migonei midgut” value was “when the midguts were treated with blocked DVL, a remarkable decrease in the fluorescence pattern”.

From PMC4238264, “A Lectin from Dioclea violacea Interacts with Midgut Surface of Lutzomyia migonei, Unlike Its Homologues, Cratylia floribunda Lectin and Canavalia gladiata Lectin” (The Scientific World Journal, 2014)
